# According to US11058702B2 (EMEK, Inc., priority 2014, dated 2021):
# Key:
# [1] = biological target: T1, human liver IPdR-aldehyde oxidase (Homo sapiens, UniProt Q06278); details: low concentrations
# T1 sequence (Q06278 1-1338): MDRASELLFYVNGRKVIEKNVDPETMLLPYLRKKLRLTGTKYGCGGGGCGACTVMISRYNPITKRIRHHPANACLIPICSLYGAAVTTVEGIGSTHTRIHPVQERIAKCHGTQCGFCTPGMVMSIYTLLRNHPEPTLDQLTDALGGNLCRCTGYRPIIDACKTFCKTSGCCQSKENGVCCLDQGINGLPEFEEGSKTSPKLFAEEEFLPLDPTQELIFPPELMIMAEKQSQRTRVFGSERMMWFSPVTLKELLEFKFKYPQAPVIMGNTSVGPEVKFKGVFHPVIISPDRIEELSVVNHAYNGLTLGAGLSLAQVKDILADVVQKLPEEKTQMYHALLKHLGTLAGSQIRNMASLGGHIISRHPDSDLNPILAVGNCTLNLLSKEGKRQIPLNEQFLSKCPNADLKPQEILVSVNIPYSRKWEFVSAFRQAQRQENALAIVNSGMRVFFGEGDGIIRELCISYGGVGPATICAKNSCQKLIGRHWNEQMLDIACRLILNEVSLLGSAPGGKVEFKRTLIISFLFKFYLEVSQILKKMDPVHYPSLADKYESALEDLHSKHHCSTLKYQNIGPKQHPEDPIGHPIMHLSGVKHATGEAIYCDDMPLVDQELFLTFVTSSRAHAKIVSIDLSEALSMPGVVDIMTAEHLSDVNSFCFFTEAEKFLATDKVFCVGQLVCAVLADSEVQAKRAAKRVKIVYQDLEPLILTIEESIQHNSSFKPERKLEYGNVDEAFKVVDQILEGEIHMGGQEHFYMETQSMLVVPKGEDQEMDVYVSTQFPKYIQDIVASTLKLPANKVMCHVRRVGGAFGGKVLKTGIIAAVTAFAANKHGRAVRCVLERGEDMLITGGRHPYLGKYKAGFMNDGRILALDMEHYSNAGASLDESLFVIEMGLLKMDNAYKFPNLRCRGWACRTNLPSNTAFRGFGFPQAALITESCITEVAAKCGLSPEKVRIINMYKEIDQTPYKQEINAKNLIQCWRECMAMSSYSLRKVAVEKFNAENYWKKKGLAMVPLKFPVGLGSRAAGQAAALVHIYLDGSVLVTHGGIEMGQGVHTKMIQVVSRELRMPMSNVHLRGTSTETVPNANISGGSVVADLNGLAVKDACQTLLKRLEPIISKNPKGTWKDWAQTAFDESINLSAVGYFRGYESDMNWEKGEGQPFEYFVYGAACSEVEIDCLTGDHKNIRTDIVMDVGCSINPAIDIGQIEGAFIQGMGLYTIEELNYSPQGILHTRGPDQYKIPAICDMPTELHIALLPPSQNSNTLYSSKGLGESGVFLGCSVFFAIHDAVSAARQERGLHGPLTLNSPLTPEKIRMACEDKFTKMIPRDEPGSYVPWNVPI
# [2] = system: IPdR oxidase activity of human intestine cytosol
# head & neck cancers = details: cis-platin+definitive RT, cCR achieved; cited from earlier work
# [3] = system: locally advanced rectal cancer; details: cited from earlier work
SMILES,effect on human liver IPdR-aldehyde oxidase [1],effect on human small intestine IPdR oxidase activity [2],also measured
COc1ccc(C=O)cc1O [isovanillin],inhibited,not inhibited,–
Oc1ncnc2[nH]ncc12 [allopurinol],not,not inhibited,–
"N.N.[Cl][Pt][Cl] [cis-platin, cis-diamminedichloroplatinum II]",–,–,cure rate (head & neck cancers): approximately 60%
CCCCCOC(=O)Nc1nc(=O)n([C@@H]2O[C@H](C)[C@@H](O)[C@H]2O)cc1F [capecitabine],–,–,"pCR rate ([3]; neoadjuvant capecitabine+RT, Stage III rectal patients): 10-15%"
O=C1[O][Pt]2([NH][C@@H]3CCCC[C@H]3[NH]2)[O]C1=O [oxaliplatin],–,–,effect on pCR rate when added during pre-operative RT+FP ([3]; with increased normal tissue complications): without any improvement in pCR rate
CC1=CC(=O)c2ccccc2C1=O [menadione],–,stimulated,–
